{"source": "patent US11597726B2", "about": "(Certego Therapeutics Inc., priority 2020, dated 2023)", "key": {"mice": {"tested_on": "mice", "assay": "Onset of sedation (immobility) in the open field test (OFT)", "format": "in vivo"}, "c-fos": {"tested_on": "c-fos", "assay": "Pharmacomapping: whole-brain drug-evoked c-fos activation", "conditions": "for brain activation compared with non-deuterated gaboxadol at the same dose: 2.5 hour post administration; for brain activation compared with gaboxadol: BSTrh; for brain activation of each drug alone: gaboxadol at 3 mg/kg alone, ketamine at 6 mg/kg alone", "protocol": "(A) Mice are treated with a drug or vehicle solution for the control group using either intraperitoneal (i.p.), per oral (p.o.). subcutaneous (s.c.), intramuscular (i.m.) or intravenous (i.v.) delivery. […] (C) After that period the mice are killed, the c-fos induction is visualized using whole-brain immunostaining, the brains are chemically cleared and finally imaged by light-sheet fluorescent microscopy (LSFM). (D) The whole-brain scans are represented as serial section datasets typically with XYZ resolution of 4×4×5 microns. (E) The c-fos+ cells are detected in these datasets using custom trained machine learning algorithms. (F) The whole-brain distribution of the detected c-fos+ cells is represented in 3D as a spatial map of centroid points in the 3D space of the mouse brain. (G) This 3D map distribution is registered to a reference mouse brain and spatially voxelized using overlapping 150-micron sphere voxels.\nAt 2.5 hour post administration, the mice were euthanized and brains were immediately preserved by 4% paraformaldehyde (PFA)."}, "GABAA receptor": {"tested_on": "GABAA receptor", "conditions": "in vivo; cited from earlier work"}, "[1]": {"conditions": "20 mg dose; cited from earlier work"}, "rodent": {"tested_on": "rodent", "assay": "d-amphetamine-induced hyperlocomotion (rodent model of mania)", "format": "in vivo", "conditions": "gaboxadol at 3 mg/kg alone"}, "[2]": {"tested_on": "combined delta, theta and alpha activity", "conditions": "160 minutes after the first treatment; cited from earlier work"}, "[3]": {"tested_on": "patients with severe major depressive disorder", "conditions": "490 patients; daily oral escitalopram 20 mg and gaboxadol 5 mg or 10 mg; cited from earlier work"}, "cytochrome P450s (CYPs)": {"tested_on": "cytochrome P450s (CYPs)", "conditions": "cited from earlier work"}, "mouse": {"tested_on": "mouse", "assay": "Forced swim test", "format": "in vivo", "conditions": "single dose 10 mg/kg, 1 hour and 24 hours after drug delivery, 6 min forced swim", "experimental": "The forced swim test is a frequently used behavioral protocol with a well-established therapeutic predictability for a broad range of antidepressants including ketamine (Porsolt et al. 1977; Cryan and Mombereau 2004; Cryan et al. 2005; Lucki et al. 2001). In this test the mouse is put in a beaker filled with water and the time spent struggling, swimming and floating is measured, with the time spent floating—when the mouse stops struggling to swim—being used as a behavioral correlate of depression."}, "insomnia": {"tested_on": "insomnia", "conditions": "three-month efficacy study; cited from earlier work"}, "[4]": {"conditions": "human doses equivalent to the mouse 6 mg/kg dose; cited from earlier work"}, "[5]": {"conditions": "cited from earlier work"}}, "note": "Entries after “also recorded” stand apart in the source; their conditions may differ. Read-outs that look alike come from different tables or passages of the source.", "data": [{"smiles": "[2H]C1([2H])NCCc2c1o[nH]c2=O", "note": "[d2-gaboxadol 7,7, 4,5,6,7-tetrahydroisoxazolo[5,4-c]pyridin-3(2H)-one-7,7-d2]", "values": [{"measurement": "onset of sedation (start of immobility)", "setting": "mice", "value": 13, "unit": "min"}, {"measurement": "onset of sedation (start of immobility)", "setting": "mice; listed as d2-gaboxadol", "value": "13 to 14", "unit": "min"}, {"measurement": "brain activation compared with non-deuterated gaboxadol at the same dose", "setting": "c-fos; 6 mg/kg i.p., ORBm, ILA, ACAd, AI, GU, VISC, CLA, LSr, BSTa", "value": "considerably higher brain activation than non-deuterated gaboxadol"}, {"measurement": "brain activation compared with non-deuterated gaboxadol at the same dose", "setting": "c-fos; 6 mg/kg i.p., ORBm, ILA, ACAd, AI, GU, VISC, CLA, LSr, BSTa, listed as d2-gaboxadol", "value": "considerably stronger"}, {"measurement": "enhancement of synergies with lithium compared with non-deuterated gaboxadol", "setting": "c-fos; 6 mg/kg with lithium at 150 mg/kg (FIG. 38)", "value": "significantly stronger enhancement of synergies with lithium than is found with non-deuterated gaboxadol"}, {"measurement": "level of brain activation compared with the same doses of non-deuterated gaboxadol", "setting": "c-fos; 6, 10 and in some cases 20 mg/kg, certain brain areas (e.g. ILA and CP)", "value": "higher than the level of activation obtained by the same doses of non-deuterated gaboxadol"}, {"measurement": "dose of non-deuterated gaboxadol with equivalent/comparable brain activation", "setting": "c-fos; d2-gaboxadol 7,7 at 6 mg/kg, mice, listed as ring carbon deuterated gaboxadol (7,7-d2), 6 mg/kg", "value": "10 to 20", "unit": "mg/kg"}]}, {"smiles": "[2H]C1([2H])NC([2H])([2H])C([2H])([2H])c2c1o[nH]c2=O", "note": "[d6-gaboxadol, 4,5,6,7-tetrahydroisoxazolo[5,4-c]pyridin-3(2H)-one-4,4,5,5,7,7-d6]", "values": [{"measurement": "onset of sedation (start of immobility)", "setting": "mice", "value": 11, "unit": "min"}, {"measurement": "brain activation compared with gaboxadol", "setting": "c-fos; 6 mg per kg, GU, VISC, AI (AId, AIp), TEa, CLA, BSTa, LC", "value": "higher brain activation than gaboxadol"}, {"measurement": "brain activation compared with gaboxadol", "setting": "c-fos; 10 mg per kg, ACA (ACAd, ACAv), ILA, GU, VISC, AI, TEa, CLA, BSTa", "value": "more efficacious in evoking brain activation than gaboxadol"}, {"measurement": "brain activation compared with gaboxadol", "setting": "c-fos; 20 mg per kg, BSTa, BSTov, BSTp, LC, CP, STRv (ACB, OT)", "value": "higher brain activation than gaboxadol"}, {"measurement": "brain activation compared with non-deuterated gaboxadol at the same dose", "setting": "c-fos; 6, 10 and 20 mg per kg i.p.", "value": "considerably higher brain activation than non-deuterated gaboxadol"}]}, {"smiles": "Oc1noc2c1CCNC2", "note": "[gaboxadol, 4,5,6,7-tetrahydroisoxazolo (5,4-c) pyridin-3-ol]", "values": [{"measurement": "onset of sedation (start of immobility)", "setting": "mice", "value": 15, "unit": "min"}, {"measurement": "GABAA receptor saturation level (blood level)", "setting": "GABAA receptor", "value": "over 900 ng/ml"}, {"measurement": "AUC0-∞", "setting": "[1]", "value": "about 900 ng*hr/ml"}, {"measurement": "Cmax", "setting": "[1]", "value": 900, "unit": "ng/mL"}, {"measurement": "plasma Tmax", "setting": "[1]", "value": "≤ 1.5", "unit": "h"}, {"measurement": "whole-brain activation pattern compared with ketamine", "setting": "c-fos; gaboxadol 10 mg/kg vs ketamine 10 mg/kg", "value": "very similar brain activation as ketamine"}, {"measurement": "brain activation of each drug alone", "setting": "c-fos", "value": "neither gaboxadol at 3 mg/kg nor ketamine at 6 mg/kg alone evoked any brain activation detectable"}, {"measurement": "brain activation of each compound alone", "setting": "c-fos; lithium at 150 mg/kg alone, gaboxadol at 6 mg/kg alone", "value": "moderate brain activation on their own"}, {"measurement": "effect on amphetamine-induced hyperlocomotion", "setting": "rodent", "value": "only modestly"}, {"measurement": "whole head MEG planar gradiometer increase in combined delta, theta and alpha activity", "setting": "[2]", "value": "≥ +3"}, {"measurement": "benefit of oral gaboxadol added to escitalopram", "setting": "[3]", "value": "no additional benefit relative to escitalopram alone"}, {"measurement": "metabolism by CYPs", "setting": "cytochrome P450s (CYPs)", "value": "not metabolized by CYPs"}, {"measurement": "time spent floating (immobility) compared to vehicle treated control group", "setting": "mouse", "value": "significantly reduced the time spent in floating; also recorded: nearly identical behavioral effect as the ketamine group"}, {"measurement": "effects in sleep onset and sleep maintenance", "setting": "insomnia", "value": "failed to show significant effects in sleep onset and sleep maintenance"}, {"measurement": "adverse side-effects in clinical trials", "setting": "[4]", "value": "no significant adverse side-effects"}]}, {"smiles": "CNC1(c2ccccc2Cl)CCCCC1=O", "note": "(stereo not shown) [ketamine]", "values": [{"measurement": "whole-brain activation pattern", "setting": "c-fos; acute single dose 10 mg/kg, many cortical areas and midline thalamic nuclei", "value": "very robust and broad activation"}, {"measurement": "whole-brain activation pattern", "setting": "c-fos; acute single dose 5 and 100 mg/kg", "value": "modest activation"}, {"measurement": "brain activation of each drug alone", "setting": "c-fos", "value": "neither gaboxadol at 3 mg/kg nor ketamine at 6 mg/kg alone evoked any brain activation detectable"}, {"measurement": "time spent floating (immobility) compared to vehicle treated control group", "setting": "mouse", "value": "significantly reduced the time spent in floating; also recorded: significantly decreases the time the drug treated mice spent floating"}]}, {"smiles": "[Li]", "note": "[lithium]", "values": [{"measurement": "typical therapeutic concentration in the serum", "setting": "[5]; acute treatment of manic episodes", "value": "0.6 to 1.2", "unit": "mmol/L"}, {"measurement": "serum concentration associated with mild toxicity", "setting": "[5]; in vivo", "value": "1200 to 2500", "unit": "µM"}, {"measurement": "serum concentration that can be life-threatening", "setting": "[5]; in vivo", "value": "greater than 3.5 mmol/L"}]}]}
